Source: BindingDB's records for doi:10.1021/jm034088d (Abbott Laboratories, 2003)

Target: Tyrosine-protein phosphatase non-receptor type 11, SHP-2 (Homo sapiens) (UniProt Q06124)
Assay: Inhibitory activity against SH-domain containing phosphotyrosine phosphatase-2 (Tyrosine phosphatase SHP2) was determined

Sequence of Tyrosine-protein phosphatase non-receptor type 11, SHP-2 (Homo sapiens) (Q06124 whole entry, looked up): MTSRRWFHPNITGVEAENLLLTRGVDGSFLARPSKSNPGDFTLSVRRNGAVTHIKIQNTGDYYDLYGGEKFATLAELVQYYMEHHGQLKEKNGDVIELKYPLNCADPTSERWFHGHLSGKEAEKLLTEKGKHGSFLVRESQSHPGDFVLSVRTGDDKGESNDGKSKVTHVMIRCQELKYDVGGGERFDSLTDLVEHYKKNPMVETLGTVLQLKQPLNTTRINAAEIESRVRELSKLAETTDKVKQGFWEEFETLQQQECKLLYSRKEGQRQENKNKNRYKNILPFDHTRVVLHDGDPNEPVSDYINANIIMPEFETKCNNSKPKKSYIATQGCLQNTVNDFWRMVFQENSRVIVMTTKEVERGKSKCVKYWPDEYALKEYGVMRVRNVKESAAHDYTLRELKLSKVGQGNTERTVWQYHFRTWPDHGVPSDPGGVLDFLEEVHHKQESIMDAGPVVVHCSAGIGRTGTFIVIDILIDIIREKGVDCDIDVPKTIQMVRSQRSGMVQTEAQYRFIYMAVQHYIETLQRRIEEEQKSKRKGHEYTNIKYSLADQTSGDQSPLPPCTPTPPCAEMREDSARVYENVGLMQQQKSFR

Row | SMILES | Ki
1 | CCc1cc(CC(NC(C)=O)C(=O)NCCCCOc2cc(Cl)cc(O)c2C(=O)OC)ccc1N(C(=O)C(=O)O)c1ccccc1C(=O)O (configuration not stated) [2-[4-(2-Acetylamino-3-{4-[(2-carboxy-phenyl)-oxalyl-amino]-3-ethyl-phenyl}-propionylamino)-butoxy]-4-chloro-6-hydroxy-benzoic acid methyl ester] | > 3 µM
2 | C=CCOC(=O)N[C@@H](Cc1ccc(N(C(=O)C(=O)O)c2ccccc2C(=O)O)cc1)C(=O)NCCCCOc1cccc(O)c1C(=O)OC [(S)-2-(N-(4-(2-(allyloxycarbonylamino)-3-(4-(3-hydroxy-2-(methoxycarbonyl)phenoxy)butylamino)-3-oxopropyl)phenyl)-1-carboxyformamido)benzoic acid] | 96 µM
